Source: publication PMC7011792 (Journal of Enzyme Inhibition and Medicinal Chemistry, 2017)
Like-named read-outs stand apart in the source and are kept apart here.

What was measured:
[1] = target: T1, AChE (EC 3.1.1.7) from electric eel (Electrophorus electricus, UniProt O42275); test: biochemical; conditions: for IC50: AChE from electric eel, mean ± SEM of three experiments; for Selectivity index (SI) = BuChE IC50/AChE IC50: eqBuChE IC50 / eeAChE IC50
T1 construct: purchased Sigma-Aldrich C3389
Protocol: (§1) AChE (EC 3.1.1.7, Type VI-S, from electric eel, C3389; from human, C1682) and BuChE (EC 3.1.1.8, from equine serum, C0663; from human, B4186), 5,5'-dithiobis (2-nitrobenzoic acid) (DTNB, D218200), acetylthiocholine iodide (ATC, A5751), and butyrylthiocholine iodide (BTC, B3253) were obtained from Sigma-Aldrich (St. Louis, MO).
(§2) The inhibitory effects of the synthesised compounds in this paper were evaluated according to our previously reported method. […] ATC/BTC iodide solution (0.075 M) was prepared in deionised water. […] The assay buffer was prepared as follows: potassium dihydrogen phosphate (1.36 g, 10 mmol) was dissolved in 100 ml of water. The pH of the solution was then adjusted to 8.0 ± 0.1 with KOH. Stock solutions of the test samples were dissolved in ethanol to give a final concentration of 10^−4 M when diluted to the final volume of 3.32 ml. For each compound, a dilution series of at least five different concentrations (normally 10^−5–10^−9 M) were prepared.
(§3) For measurement, a cuvette containing 3.0 ml of phosphate buffer, 100 µL of AChE or BuChE, 100 µL of DTNB, and 100 µL of the test compound solution were added in sequence. The reaction was initiated after adding 20 µL of ATC or BTC, and the solution was mixed immediately. […] For the reference value, 100 µL of water replaced the test compound solution. For the blank control, additionally 100 µL of water replaced the enzyme solution. The measurement for each concentration was assayed in triplicate. GraphPad Prism 5 was used for data processing. The inhibition curve was fitted by plotting percentage enzyme activity (100% for the reference) versus logarithm of test compound concentration. The IC50 values were calculated according to the curve, and the data were shown in mean ± SEM.
(§4) The inhibitory effects on ChEs of all the target compounds were determined according to Ellman’s method. AChE from electrophorus electricus (eeAChE) and BuChE from equine serum (eqBuChE) were used in the assays.

[2] = target: T2, BuChE (EC 3.1.1.8) from horse serum (Equus caballus, UniProt P81908); test: biochemical; format: biochemical; conditions: BuChE from horse serum; mean ± SEM of three experiments
T2 construct: purchased Sigma-Aldrich C0663; host or cells: equine serum
Protocol: as §1, §2, §3, §4

[3] = target: T3, AChE (EC 3.1.1.7) from human (Homo sapiens, UniProt P22303); test: Human AChE inhibition, Ellman's method; format: biochemical; conditions: for IC50: huAChE, mean ± SEM; for Selectivity index (SI) = BuChE IC50/AChE IC50, human enzymes: huBuChE IC50 / huAChE IC50
T3 construct: purchased Sigma-Aldrich C1682
Protocol: as §1
(§5) The inhibitory effects of the synthesised compounds in this paper were evaluated according to our previously reported method. Briefly, AChE/BuChE stock solution was diluted to give 2.5 units/mL (for eeAChE, eqBuChE, and huAChE) or 0.5 units/mL for huBuChE. ATC/BTC iodide solution (0.075 M) was prepared in deionised water. DTNB solution (0.01 M) was prepared using water containing 0.15% (w/v) sodium bicarbonate. The assay buffer was prepared as follows: potassium dihydrogen phosphate (1.36 g, 10 mmol) was dissolved in 100 ml of water. The pH of the solution was then adjusted to 8.0 ± 0.1 with KOH. Stock solutions of the test samples were dissolved in ethanol to give a final concentration of 10^−4 M when diluted to the final volume of 3.32 ml. For each compound, a dilution series of at least five different concentrations (normally 10^−5–10^−9 M) were prepared.
(§6) For measurement, a cuvette containing 3.0 ml of phosphate buffer, 100 µL of AChE or BuChE, 100 µL of DTNB, and 100 µL of the test compound solution were added in sequence. The reaction was initiated after adding 20 µL of ATC or BTC, and the solution was mixed immediately. Two minutes (eeAChE and eqBuChE) or 15 min (huAChE and huBuChE) after ATC or BTC addition, the absorption was measured at 25 °C (eeAChE and eqBuChE) or 37 °C (huAChE and huBuChE) at 412 nm, using a Shimadzu 160 spectrophotometer. For the reference value, 100 µL of water replaced the test compound solution. For the blank control, additionally 100 µL of water replaced the enzyme solution. The measurement for each concentration was assayed in triplicate. GraphPad Prism 5 was used for data processing. The inhibition curve was fitted by plotting percentage enzyme activity (100% for the reference) versus logarithm of test compound concentration. The IC50 values were calculated according to the curve, and the data were shown in mean ± SEM.

[4] = target: T4, BuChE (EC 3.1.1.8) from human (Homo sapiens, UniProt P06276); test: Human BuChE inhibition, Ellman's method; format: biochemical; conditions: huBuChE; mean ± SEM
T4 construct: purchased Sigma-Aldrich B4186
Protocol: as §1, §5
as §6, with “The inhibition curve was fitted by plotting percentage enzyme activity (100% for the reference) versus logarithm of test compound concentration.” left out

Aβ1–42 = target: T5, Aβ1–42 (Homo sapiens, UniProt P05067); test: Inhibition of self-induced Aβ1–42 aggregation (Thioflavin T assay); format: biochemical; conditions: compound 25 μM, 24 h, read-out: Inhibitory rate on self-induced Aβ1-42 aggregation
T5 construct: aliquots of 2.0 µL of Aβ1–42 (AS-64129–05 Anaspec Inc.); purchased Anaspec Inc. AS-64129–05
Protocol: Inhibitory effects of the compounds on self-induced Aβ1–42 aggregation were evaluated using a Thioflavin T (ThT)-(T3516, Sigma-Aldrich, St. Louis, MO) binding assay according to the previously reported method. […] The Aβ1–42 and the test sample solutions were incubated for 24 h at the room temperature.
The inhibitory rate of Aβ1–42 self-induced aggregation was calculated according to the following equation: (1-IFi/IFc) × 100%. IFi and IFc were the fluorescence intensities in the presence and absence of inhibitors, respectively, after subtracting the background fluorescence of the 5 mM Thioflavin T solution. Each measurement was repeated in triplicate. The inhibitory rate of the test compound was shown in mean ± SD.

ICR mice [5] = conditions: for ALT (U/L) / AST (U/L): mice serum, n = 6
Protocol: The activity of AST and ALT, two indicators of liver damage, was determined using corresponding assay kit (EF551 and EF550 for ALT, EH027, and EF548 for AST, Wako, Japan).
One hour after the collection of retrobulbar blood, mice were sacrificed and livers were harvested for morphological studies by using immunohistochemical method. Two 3 mm sections of each liver extending from the hilus to the margin of the left lateral lobe were isolated by Ultra-Thin Semiautomatic Microtome (Leica RM2245, Germany) and immediately placed in 10% buffered formaldehyde, fixed for two days, and embedded together in one paraffin block by using Paraffin Embedding Station (Leica EG1150H, Germany). Subsequently, 5 µm sections were prepared from these paraffin blocks. They were deparaffinated and stained with hematoxylin and eosin or by means of the periodic acid-Schiff procedure for glycogen.

ICR mice [6] = test: Morris water maze test, scopolamine-induced cognitive impairment; conditions: for Latency to target (second), Day 5 / Latency to target (second), Day 6 / Latency to target (second), Day 7 / Latency to target (second), Day 8 / Latency to target (second), Day 9: learning and training, oral, plus scopolamine; for Latency to target (second), Day 5 / Latency to target (second), Day 6 / Latency to target (second), Day 7 / Latency to target (second), Day 8 / Latency to target (second), Day 9 / Latency to Target: ICR mice; for Latency to Target: probe trial, oral administration plus scopolamine (1 mg/kg ip), mean ± SEM, n = 6; for trajectory in the Morris water maze test: scopolamine-impaired ICR mice, compared to tacrine group
[7] = 22 h after ig administration, 151.5 µmol/kg
[8] = 36 h after ig administration, 151.5 µmol/kg

T3 sequence (P22303 32-614): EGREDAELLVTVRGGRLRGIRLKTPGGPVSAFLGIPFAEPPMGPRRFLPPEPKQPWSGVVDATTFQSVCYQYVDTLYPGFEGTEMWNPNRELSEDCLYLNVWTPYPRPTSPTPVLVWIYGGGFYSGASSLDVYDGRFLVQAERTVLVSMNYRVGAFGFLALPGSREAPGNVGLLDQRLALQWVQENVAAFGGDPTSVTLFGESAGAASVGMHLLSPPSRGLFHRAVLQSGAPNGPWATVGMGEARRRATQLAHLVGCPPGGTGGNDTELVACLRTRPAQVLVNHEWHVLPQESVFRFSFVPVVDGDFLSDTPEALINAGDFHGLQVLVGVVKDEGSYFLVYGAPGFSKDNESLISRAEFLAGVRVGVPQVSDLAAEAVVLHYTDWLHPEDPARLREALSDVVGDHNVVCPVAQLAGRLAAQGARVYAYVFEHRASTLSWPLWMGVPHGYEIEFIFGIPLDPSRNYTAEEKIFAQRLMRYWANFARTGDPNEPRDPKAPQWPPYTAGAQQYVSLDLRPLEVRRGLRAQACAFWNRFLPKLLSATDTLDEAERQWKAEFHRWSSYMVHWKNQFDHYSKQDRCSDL
T5 sequence (P05067 672-713): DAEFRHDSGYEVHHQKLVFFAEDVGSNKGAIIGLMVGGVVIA
T1 sequence (O42275 24-633): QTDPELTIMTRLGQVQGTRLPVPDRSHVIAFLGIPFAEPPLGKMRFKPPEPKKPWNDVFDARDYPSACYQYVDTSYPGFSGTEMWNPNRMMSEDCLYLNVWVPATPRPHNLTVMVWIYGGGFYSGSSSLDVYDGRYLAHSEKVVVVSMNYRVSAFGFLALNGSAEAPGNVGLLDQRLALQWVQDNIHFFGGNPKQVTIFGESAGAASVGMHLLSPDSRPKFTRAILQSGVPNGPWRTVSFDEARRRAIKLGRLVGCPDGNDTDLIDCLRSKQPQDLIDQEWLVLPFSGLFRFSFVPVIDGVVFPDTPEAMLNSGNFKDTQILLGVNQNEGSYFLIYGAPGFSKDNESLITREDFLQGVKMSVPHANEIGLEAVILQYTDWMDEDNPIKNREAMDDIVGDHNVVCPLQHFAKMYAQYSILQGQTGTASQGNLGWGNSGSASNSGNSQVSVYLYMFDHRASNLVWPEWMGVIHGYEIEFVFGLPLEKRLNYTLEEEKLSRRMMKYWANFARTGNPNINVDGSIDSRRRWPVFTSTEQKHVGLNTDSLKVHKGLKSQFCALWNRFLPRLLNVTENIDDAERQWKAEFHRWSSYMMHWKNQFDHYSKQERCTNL
T2 sequence (P81908 whole entry): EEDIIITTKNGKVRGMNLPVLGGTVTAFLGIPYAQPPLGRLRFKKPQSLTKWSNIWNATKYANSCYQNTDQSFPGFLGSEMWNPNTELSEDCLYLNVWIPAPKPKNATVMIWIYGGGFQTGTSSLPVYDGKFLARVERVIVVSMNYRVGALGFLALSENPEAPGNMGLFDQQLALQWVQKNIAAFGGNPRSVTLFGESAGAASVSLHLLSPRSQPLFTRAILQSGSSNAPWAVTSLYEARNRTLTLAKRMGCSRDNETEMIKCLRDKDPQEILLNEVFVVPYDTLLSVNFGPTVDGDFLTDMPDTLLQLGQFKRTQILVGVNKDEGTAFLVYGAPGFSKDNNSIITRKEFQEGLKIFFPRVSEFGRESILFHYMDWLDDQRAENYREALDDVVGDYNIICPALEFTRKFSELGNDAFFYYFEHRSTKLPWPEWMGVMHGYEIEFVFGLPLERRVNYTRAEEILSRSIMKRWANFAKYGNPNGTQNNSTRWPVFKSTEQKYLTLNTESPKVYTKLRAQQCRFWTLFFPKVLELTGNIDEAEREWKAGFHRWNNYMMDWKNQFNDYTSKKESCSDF
T4 sequence (P06276 29-602): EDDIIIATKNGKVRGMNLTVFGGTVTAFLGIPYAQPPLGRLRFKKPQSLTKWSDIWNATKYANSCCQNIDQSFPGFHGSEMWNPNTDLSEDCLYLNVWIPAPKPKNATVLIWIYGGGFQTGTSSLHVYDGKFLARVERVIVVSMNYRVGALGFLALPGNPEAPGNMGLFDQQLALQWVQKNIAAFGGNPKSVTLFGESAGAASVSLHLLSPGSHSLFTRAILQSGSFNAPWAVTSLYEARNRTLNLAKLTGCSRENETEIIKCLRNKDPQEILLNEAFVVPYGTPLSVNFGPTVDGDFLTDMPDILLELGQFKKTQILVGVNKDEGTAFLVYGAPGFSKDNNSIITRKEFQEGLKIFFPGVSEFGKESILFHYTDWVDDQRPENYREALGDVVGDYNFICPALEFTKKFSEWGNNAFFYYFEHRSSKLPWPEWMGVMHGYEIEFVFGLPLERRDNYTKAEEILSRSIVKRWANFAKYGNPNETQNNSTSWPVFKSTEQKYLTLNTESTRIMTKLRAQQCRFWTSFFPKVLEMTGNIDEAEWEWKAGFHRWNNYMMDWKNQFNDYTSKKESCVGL

Compound | IC50 [1] | Selectivity index (SI) = BuChE IC50/AChE IC50 [1] | IC50 [2] | IC50 [3] | Selectivity index (SI) = BuChE IC50/AChE IC50, human enzymes [3] | IC50 [4] | inhibition at 25 µM (Aβ1–42) | morphologic changes in liver (ICR mice [5]; mouse, in vivo) | Latency to target (second), Day 5 (ICR mice [6]) | Latency to target (second), Day 6 (ICR mice [6]) | Latency to target (second), Day 7 (ICR mice [6]) | Latency to target (second), Day 8 (ICR mice [6]) | Latency to target (second), Day 9 (ICR mice [6]) | Latency to Target (ICR mice [6]) | trajectory in the Morris water maze test (ICR mice [6]) | other results
O=C(/C=C/c1ccc(Cl)cc1)NCCCCCCNc1c2c(nc3ccccc13)CCCC2 [Compound 27, (E)-3-(4-chlorophenyl)-N-(6-((1,2,3,4-tetrahydroacridin-9-yl)amino)hexyl)acrylamide] | 6.9 ± 1.2 nM | 1.9 | 12.9 ± 1.7 nM | 16.5 nM | 0.3 | 5.7 nM | 42.2% | did not cause remarkable morphologic changes in liver | 57.1 ± 6.8 s | 41.5 ± 5.0 s | 39.2 ± 4.3 s | 27.6 ± 2.5 s | 28.3 ± 1.7 s | 25.6 ± 1.8 s | much shortened distances as compared to tacrine group | 
COc1ccc(/C=C/C(=O)NCCCCCCNc2c3c(nc4ccccc24)CCCC3)cc1 [Compound 30, (E)-3-(4-methoxyphenyl)-N-(6-((1,2,3,4-tetrahydroacridin-9-yl)amino)hexyl)acrylamide] | 3.7 ± 1.5 nM | 6.1 | 22.5 ± 5.9 nM | 15.3 nM | 0.5 | 8 nM | 34.6% | did not cause remarkable morphologic changes in liver | 59.1 ± 7.0 s | 47.3 ± 6.6 s | 46.4 ± 6.8 s | 32.4 ± 5.3 s | 33.2 ± 4.0 s | 29.4 ± 1.9 s | much shortened distances as compared to tacrine group | 
Oc1ccc(/C=C/c2cc(O)cc(O)c2)cc1 [Resveratrol, reference compound] |  |  |  |  |  |  | 30.4% |  |  |  |  |  |  |  |  | 
Nc1c2c(nc3ccccc13)CCCC2 [Tacrine, reference compound] |  |  |  |  |  |  |  |  | 69.2 ± 11.0 s | 58.3 ± 7.9 s | 50.3 ± 6.3 s | 37.1 ± 5.1 s | 38.2 ± 2.6 s | 34.5 ± 1.3 s |  | ALT (U/L) (ICR mice [5]; 8 h after ig administration, 151.5 µmol/kg (tacrine 30 mg/kg, equimolar test compounds)): 38.0 ± 3.5 U/L; AST (U/L) (ICR mice [5]; 8 h after ig administration, 151.5 µmol/kg): 134.5 ± 9.9 U/L; ALT (U/L) (ICR mice [5]; [7]): 38.7 ± 5.2 U/L; AST (U/L) (ICR mice [5]; [7]): 125.8 ± 16.2 U/L; morphologic changes in liver (ICR mice [5]; 36 h after administration, HE staining, compared to control group): did not cause remarkable morphologic changes in liver; ALT (U/L) (ICR mice [5]; [8]): 40.9 ± 3.5 U/L; AST (U/L) (ICR mice [5]; [8]): 138.7 ± 8.5 U/L
